According to patent US7955618B2, “Composition for treatment of inflammatory disorders” (Enceladus Pharmaceuticals B.V., priority 2001, dated 2011):

Columns and labels:
[1] = system: AT-EAE (T cells and macrophages in spinal cord); conditions: 50 mg/kg i.v. at 18 h and 6 h before perfusion
Experimental: Adoptive Transfer Experimental Autoimmune Encephalomyelitis (AT-EAE) was induced in female Lewis rats by intravenous injection of 10^7 MBP-specific T cells.
10 mg/kg prednisolone phosphate containing liposomes, as prepared according to Example I, were applied intravenously at 42 hours and 18 hours prior to sacrifice. Another group received 50 mg/kg methylprednisolone intravenously at 18 hours and 6 hours before perfusion. Control rats received empty liposomes and/or saline at equivalent time points.
T cells or macrophages in spinal cord were detected immunohistochemically in paraffin embedded tissue and apoptosis was assessed by the TUNEL assay and by morphological criteria. Student t test for grouped data was used for statistical analysis.

[2] = system: rat adjuvant arthritis model (paw inflammation); experiment: Rat adjuvant arthritis model, visual paw inflammation score; format: in vivo, Lewis rats; conditions: for average inflammation score: day 15 until day 21, 6.5±0.56 on day 14, daily saline max 10.6±1.3 on day 20; for effect on course of the disease (paw inflammation): single injection, doses equal to liposomal drug, p>0.05 Kruskall-Wallis
Experimental: Lewis rats were immunized subcutaneously at the tail base with heat-inactivated Mycobacterium tuberculosis in incomplete Freund's adjuvant.
Assessment of the disease was performed by visually scoring paw inflammation severity, maximum score 4 per paw, and measuring disease-induced body weight loss. […] Rats were treated when the average score >6 (at day 14 or 15 after disease induction).

Molecule	clinical score ([1]; controls 3.2±0.3)	macrophage infiltration in spinal cord ([1]; controls 78±37) [macrophages/mm^2]	T cell infiltration in spinal cord ([1]; controls 115±51) [T cells/mm^2]	rate of T cell apoptosis in spinal cord tissue ([1]; mean±SD, control 16.1±4.3%) [%]	average inflammation score ([2]; 10 mg/kg daily for 7 days)	average inflammation score ([2]; 20 mg/kg daily for 7 days)	effect on course of the disease (paw inflammation) [2]	effect on course of the disease (paw inflammation) ([2]; listed as unencapsulated prednisolone phosphate)
C[C@H]1C[C@@H]2[C@H]([C@@H](O)C[C@@]3(C)[C@H]2CC[C@]3(O)C(=O)CO)[C@@]2(C)C=CC(=O)C=C12 [Methylprednisolone, methylprednisolone]	3.2±0.3	66±25	96±19	30.8±8.0	–	–	–	–
prednisolone disodium phosphate [Unencapsulated prednisolone phosphate]	–	–	–	–	around 5.0	around 5.0	did not significantly alter the course of the disease	No effect
